Measurements from ChEMBL document CHEMBL1201862, “PubChem BioAssay data set” (2004).
Values joined by “and” are separate entries in the source; they are usually repeats but may differ in a detail not shown here. Equal entries are not always repeated.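 Assay format: 96-well plates, 48-hour exposure. At the GI50, growth is halved.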 Active and inactive are the calls of the source. Rule as the data show it: active = GI50 up to about 1.1 µM and inactive = higher.

Tests used:
Test in all cases: growth of human tumour cells (NCI), 48 h
[1] = test system: A549
[2] = test system: CAKI-1
[3] = test system: DMS-114
[4] = test system: EKVX
[5] = test system: HOP-18
[6] = test system: HOP-92
[7] = test system: IGROV-1
[8] = test system: NCI-H460
[9] = test system: OVCAR-4
[10] = test system: RXF 393
[11] = test system: SK-MEL-28
[12] = test system: SK-OV-3
[13] = test system: SNB-19
[14] = test system: SW-620
[15] = test system: UACC-62
[16] = test system: DU-145
[17] = test system: Hs-578T
[18] = test system: MCF7
[19] = test system: T47D
[20] = test system: BT-549

Row | Compound | GI50 [1] | GI50 [2] | GI50 [3] | GI50 [4] | GI50 [5] | GI50 [6] | GI50 [7] | GI50 [8] | GI50 [9] | GI50 [10] | GI50 [11] | GI50 [12] | GI50 [13] | GI50 [14] | GI50 [15] | GI50 [16] | GI50 [17] | GI50 [18] | GI50 [19] | GI50 [20]
1 | CCN(CC)Cc1cc(Nc2c3ccccc3nc3c4ccccc4n(C)c23)ccc1O | 12.9 µM (inactive) | 11.2 µM (inactive) | 6.37 µM (inactive) | 15.6 µM (inactive) | 14.1 µM (inactive) | 5.9 µM (inactive) | 15.4 µM (inactive) | 7.91 µM (inactive) | 14 µM (inactive) | 11.3 µM (inactive) | 4.43 µM (inactive) | 16.7 µM (inactive) | 16.7 µM (inactive) | 6.07 µM (inactive) | 6.9 µM (inactive) |  |  |  |  | 
2 | CC1CC2C3CCC4=CC(=O)C=CC4(C)C3(F)C(O)CC2(C)C1(O)C(=O)CO.Cc1cc(NS(=O)(=O)c2ccc(/N=N\c3cc(/N=N/c4ccc(S(=O)(=O)Nc5cc(C)nc(C)n5)cc4)c(OC(=O)C(Cl)Cl)c4cccc(NC(=O)C(Cl)Cl)c34)cc2)nc(C)n1 | 27 µM (inactive) | 31.2 µM (inactive) | 27.5 µM (inactive) | 26.2 µM (inactive) | 18.8 µM (inactive) | 32.5 µM (inactive) | 24.5 µM (inactive) | 25.9 µM (inactive) | 19.8 µM (inactive) | 23.9 µM (inactive) | 27 µM (inactive) | > 100 µM (inactive) | 16.5 µM (inactive) | 20.8 µM (inactive) | 23.9 µM (inactive) |  |  |  |  | 
3 | C[C@]12Cc3cn[nH]c3C(=O)C1CC[C@@H]1C2CC[C@@]2(C)C1CC[C@@H]2O (stereo not given in full) | > 100 µM (inactive) | > 100 µM (inactive) | > 100 µM (inactive) | > 100 µM (inactive) | > 100 µM (inactive) | > 100 µM (inactive) | > 100 µM (inactive) | > 100 µM (inactive) | > 100 µM (inactive) | > 100 µM (inactive) | > 100 µM (inactive) | > 100 µM (inactive) | > 100 µM (inactive) | > 100 µM (inactive) | > 100 µM (inactive) |  |  |  |  | 
4 | COC(=O)[C@@]12C=CC(=O)[C@H]3C[C@@H](C(C(C)C)C1)[C@]32OC (stereo not given in full) | > 100 µM (inactive) | > 100 µM (inactive) | > 100 µM (inactive) | > 100 µM (inactive) | > 100 µM (inactive) | > 100 µM (inactive) | > 100 µM (inactive) | > 100 µM (inactive) | > 100 µM (inactive) | > 100 µM (inactive) | > 100 µM (inactive) | > 100 µM (inactive) | > 100 µM (inactive) | > 100 µM (inactive) | > 100 µM (inactive) |  |  |  |  | 
5 | N#Cc1ccccc1Nc1ccccc1S | 30.7 µM (inactive) | > 100 µM (inactive) | 21.8 µM (inactive) | 57.7 µM (inactive) | 89.7 µM (inactive) | 35.1 µM (inactive) | 26.9 µM (inactive) | 35.2 µM (inactive) | 37.9 µM (inactive) | 18.9 µM (inactive) | 41.2 µM (inactive) | 57.1 µM (inactive) | 22.5 µM (inactive) | 22.1 µM (inactive) | 19.1 µM (inactive) |  |  |  |  | 
6 | COC1C(O)C(C)OC(OC2C(Oc3cccc4c(O)c5c(=O)oc6ccc(C)c7c(=O)oc(c34)c5c67)OC(C)C3O[C@H](c4ccccc4)OC32)C1O (stereo not given in full) | 0.0286 µM (active) | 0.207 µM (active) | 0.288 µM (active) | 1.24 µM (inactive) | 1.05 µM (active) | 1.23 µM (inactive) | 0.0681 µM (active) | 0.0195 µM (active) | 1.3 µM (inactive) | 0.274 µM (active) | 0.319 µM (active) | 0.533 µM (active) | 0.13 µM (active) | 0.0631 µM (active) | 0.14 µM (active) | 193 nM (active) | 531 nM (active) | 84 nM (active) | 196 nM (active) | 
7 | COC1C(N)C(OC2C(Oc3cccc4c(O)c5c(=O)oc6ccc(C)c7c(=O)oc(c34)c5c67)OC(C)C(O)C2(C)O)OC(C)C1O (stereo not given) | 0.0634 µM (active) | 0.0159 µM (active) | 0.0229 µM (active) | 0.156 µM (active) | 0.152 µM (active) | 0.0231 µM (active) | < 0.0197 µM (active) | < 0.0122 µM (active) | 0.405 µM (active) | < 0.0184 µM (active) | 0.029 µM (active) | 0.114 µM (active) | 0.0186 µM (active) | 0.0102 µM (active) | 0.0208 µM (active) | 187 nM (active) | < 10 nM (active) | < 10 nM (active) | 26.6 nM (active) | 19.2 nM (active)
8 | COc1ccc2oc3cccc(NCCN(C)C)c3c(=O)c2c1 | 14.2 µM (inactive) | 4.69 µM (inactive) | 12.9 µM (inactive) | 15 µM (inactive) | 11.6 µM (inactive) | 13.8 µM (inactive) | 16.6 µM (inactive) | 8.83 µM (inactive) | 12.7 µM (inactive) | 13.2 µM (inactive) | 18.2 µM (inactive) | 15.2 µM (inactive) | 14.3 µM (inactive) | 5.08 µM (inactive) | 12.7 µM (inactive) |  |  |  |  | 
9 | COC(=O)C(C(=O)C(=O)Nc1ccc(Br)cc1)c1nc2ccc(Cl)cc2nc1O (stereo not given) | > 100 µM (inactive) | > 100 µM (inactive) | > 80 µM (inactive) | > 100 µM (inactive) | > 100 µM (inactive) | > 100 µM (inactive) | > 100 µM (inactive) | > 57.1 µM (inactive) | > 34.5 µM (inactive) | > 100 µM (inactive) | > 100 µM (inactive) | > 100 µM (inactive) | > 100 µM (inactive) | > 20 µM (inactive) | > 100 µM (inactive) |  |  |  |  | 
10 | COc1cc(Br)c(/C=N\c2cccc3ccc(OS(=O)(=O)c4cccc([N+](=O)[O-])c4)cc23)cc1OC | 52.6 µM (inactive) | 19.1 µM (inactive) | 14.7 µM (inactive) | 77.3 µM (inactive) | > 100 µM (inactive) | 2.44 µM (inactive) | 58.2 µM (inactive) | 54.8 µM (inactive) | 28.1 µM (inactive) | 16.3 µM (inactive) | 6.52 µM (inactive) | > 100 µM (inactive) | 60.1 µM (inactive) | 48.1 µM (inactive) | 23.1 µM (inactive) |  |  |  |  | 
11 | CC(N)C(=O)OCN1C(=O)C2C3C=CC(C2C1=O)C1C2C(=O)N(COC(=O)C(C)N)C(=O)C2C31 (stereo not given) | 32.9 µM (inactive) | 72.6 µM (inactive) | 17 µM (inactive) | > 100 µM (inactive) | > 100 µM (inactive) | 57.5 µM (inactive) | 33.8 µM (inactive) | 17.6 µM (inactive) | 20.8 µM (inactive) | 22.2 µM (inactive) | 21.9 µM (inactive) | 53.1 µM (inactive) | 52.2 µM (inactive) | 24.4 µM (inactive) | 22.8 µM (inactive) |  |  |  |  | 
12 | COc1ccc2cc1Oc1ccc(cc1)C[C@H]1c3cc(c(OC)cc3CCN1C)Oc1c(OC)c(OC)cc3c1[C@H](C2)N(C)CC3 [FANCHININ] |  |  | 7.36 µM (inactive) |  | 9.42 µM (inactive) | 1.79 µM (inactive) and 57.1 µM (inactive) | 9.2 µM (inactive) and 49.2 µM (inactive) | 6.71 µM (inactive) | 2.42 µM (inactive) | 5.08 µM (inactive) |  | 5.9 µM (inactive) and 45.8 µM (inactive) | 17.4 µM (inactive) and 6.61 µM (inactive) |  |  |  | 8.63 µM (inactive) and 30.1 µM (inactive) | 82 µM (inactive) and 6.43 µM (inactive) |  | 
